Entries after “also recorded” stand apart in the source; their conditions may differ. Marks after values point to notes of the source that are not given here.
Experiment: Clinical observations and clinical pathology (liver enzymes) in monkeys
Format: in vivo, cynomolgus monkeys (macaca fasicularis)
Conditions: for ALT / AST / LDH: fed
Method: For both species, each animal was part of each experimental group, with a 7-day interval between treatments to allow for washout of the dosing formulation and its effects. Dosing formulations of SR13668 were administered by oral gavage (intragastric) or intravenous (i.v.) injection as a single dose or once daily for seven consecutive days. Oral to doses were administered at a dosing volume of 5 mL/kg of body weight, while intravenous doses were administered at a dosing volume of 0.5 mL/kg of body weight. Dogs were dosed with 93.6 mg/m^2 SR13668 intravenously in DMSO:PEG300 15:85 (v/v) or orally in Solutol® vehicle (two groups, fed and after an overnight fast). Monkeys were dosed with 84.2 mg/m^2 SR13668 intravenously in DMSO:PEG300 15:85 (v/v) or orally (336.7 mg/m^2 SR13668 for the oral high dose group) in PEG400:Labrasol® 1:1 (v/v) or Solutol® vehicles. Vehicle control groups were used to assess the tolerability of the vehicle and for clinical pathology evaluations.
At the end of each dosing period, the animals were examined for detailed clinical signs and symptoms (i.e., alterations of teeth, nose, eyes, perineum, pelage and body orifices; changes in appearance or behavior) and/or presence of any tissue masses. Body weights were recorded prior to treatment and daily during each testing interval. Quantitative (grams/day) food consumption data were recorded for dogs on a daily basis during each testing interval. Qualitative food consumption observations were recorded for monkeys on a daily basis during each testing interval. Blood samples for clinical pathology (clinical chemistry, hematology, and coagulation) parameter evaluation were collected from dogs and monkeys prior to dosing and on Days 2 and 8 post-dose, as well as from monkeys on Days 15 and 30 post-dose.

[1] = Day 2 (n = 2), 84.2 mg/m^2 (7.02 mg/kg) oral gavage daily days 1 through 7, PEG400:Labrasol 1:1 v/v
[2] = Day 8, 84.2 mg/m^2 (7.02 mg/kg) oral gavage daily days 1 through 7, PEG400:Labrasol 1:1 v/v
[3] = Day 15 (after discontinuation), 84.2 mg/m^2 (7.02 mg/kg) oral gavage daily days 1 through 7, PEG400:Labrasol 1:1 v/v
[4] = Day 30 (after discontinuation), 84.2 mg/m^2 (7.02 mg/kg) oral gavage daily days 1 through 7, PEG400:Labrasol 1:1 v/v
[5] = day 2 following a single dose, 84.2 mg/m^2 (7.02 mg/kg) iv, DMSO:PEG300 15:85 v/v
[6] = day 2 following a single dose, 84.2 mg/m^2 (7.02 mg/kg) oral gavage, Solutol
[7] = day 2 following a single dose, 336.7 mg/m^2 (28.06 mg/kg) oral gavage, PEG400:Labrasol 1:1 v/v
[8] = day 2 following a single dose, n = 4, 84.2 mg/m^2 (7.02 mg/kg) oral gavage, PEG400:Labrasol 1:1 v/v

## CCOC(=O)c1ccc2[nH]c3c(OC)c4[nH]c5ccc(C(=O)OCC)cc5c4cc3c2c1 [SR13668, 2,10-dicarbethoxy-6-methoxy-5,7-dihydro-indolo-(2,3-b)carbazole]
  adverse treatment-related clinical observations: soft stools and diarrhea in orally but not i.v. dosed monkeys
  effects on body weights, body weight gains or food consumption: No significant treatment-related effects on body weights, body weight gains or food consumption
  effects on clinical pathology (clinical chemistry, hematology, coagulation): modest, reversible increase in liver function enzymes; also recorded: modest increases in liver enzymes
  mortality or morbidity: no mortalities or morbidity
[1]
  ALT: 112 ± 52 IU/L
  AST: 234 ± 115 IU/L
  LDH: 1022 ± 401 IU/L
[2]
  ALT: 100 ± 38 ^a IU/L
  AST: 178 ± 86 ^b IU/L
  LDH: 1035 ± 596 IU/L
[3]
  ALT: 41.3 ± 10 IU/L
  AST: 24.0 ± 2.9 IU/L
  LDH: 184 ± 39 IU/L
[4]
  ALT: 33.3 ± 2.2 IU/L
  AST: 22.5 ± 4.3 IU/L
  LDH: 168 ± 39 IU/L
LDH, ALT, AST
  reversibility of liver enzyme increases: reversible on discontinuation of dosing
[5]
  ALT: 88.5 ± 37 IU/L
  AST: 134 ± 41 ^b IU/L
  LDH: 730 ± 210 ^c IU/L
[6]
  ALT: 95.5 ± 33 IU/L
  AST: 150 ± 40 ^b IU/L
  LDH: 779 ± 403 IU/L
[7]
  ALT: 108 ± 28 ^a IU/L
  AST: 188 ± 34 ^b IU/L
  LDH: 753 ± 242 ^c IU/L
[8]
  ALT: 86.0 ± 24 IU/L
  AST: 138 ± 75 IU/L
  LDH: 795 ± 455 IU/L
